Several values for one entry are separate records, joined by “and”; a condition that tells them apart may be missing. Identical values can stand only once. Entries after “also recorded” stand apart in the source; their conditions may differ. Counter-ions that a name gives are not always drawn. Like-named read-outs stand apart in the source and are kept apart here.

The source of these data is paper PMC4945070 (PLoS Neglected Tropical Diseases, 2016).

The target of experiment [1] is H. contortus L-AChR1.1 (UNC-63, UNC-38, ACR-8, UNC-29.1) (Haemonchus contortus, UniProt A9XX24+D6MYE9+D6MYF3+D6MYF4). Description: cell-based. More on the design: Emax: dose or concentration left out as unconfirmed. The procedure:
(§1) The H. contortus cDNAs encoding AChR subunits and ancillary proteins were available as expression clones in the pTB207 vector and C. elegans expression clones were a gift from T. Boulin.. cRNA synthesis of each construct required NheI-linearized templates and was performed with the mMessage mMachine T7 Kit (Ambion) according to the manufacturer’s instructions. cRNAs were precipitated with lithium chloride and redissolved in RNAse-free water and stored at -80°C. cRNA concentration was determined using a Nanodrop spectrophotometer (Thermo Scientific) and cRNA purity and integrity was assessed by electrophoresis through a 1% gel stained with GreenGlo nucleic acid dye (Denville Scientific Inc.).
(§2) Oocytes were collected from mature Xenopus females according to standard procedures and incubated at 19°C in a ND96 solution (NaCl 96 mM, KCl 2 mM, CaCl2 1.8 mM, MgCl2 1 mM, and HEPES 5 mM, pH 7.3 supplemented with sodium pyruvate 2.5 mM). Defolliculated oocytes were injected into the animal pole with approximately 36 nL of a cRNA mix containing 50 ng/μL of each cRNA in RNAse-free water using the Nanoject system (Drummond Scientific, Broomall, PA). Negative controls consisted of oocytes injected with RNAse-free water. Oocytes were then stored at 19°C in ND96 for 5 days to allow receptor expression. In order to prevent activation of endogenous calcium-activated chloride channels, the oocytes were incubated in ND96 supplemented with 100 μM of the calcium chelator BAPTA-AM, 4h prior to recording.
(§3) Two-electrode voltage-clamp experiments were carried out using a perfusion system connected to a flat RC-1Z chamber (Harvard Apparatus). Glass electrodes were filled with 3M KCl and checked for resistance between 1 and 3 MΩ. The oocyte bath was connected to the ground through a 3 M KCl agar bridge. Agonist and antagonists were dissolved or diluted in recording solution (100 mM NaCl, 2.5 mM KCl, 1 mM CaCl2, 5 mM HEPES, pH 7.3). All measurements were performed using a Geneclamp 500B amplifier and Digidata 1322M (Axon Instruments), oocytes were voltage-clamped at -60 mV. Drug solutions were applied to oocytes by gravity flow using perfusion syringes directly connected to the chamber. Data were collected and analyzed using Clampex 9.2 and Clampfit 9.2 (Axon Instruments, Sunnyvale, CA, USA). Traces were filtered at 30 Hz and analyzed using GraphPad Prism 5.0 software (GraphPad Software, San Diego, CA, USA). Final results are presented as means ± SE.

Experiment [2] concerns the target H. contortus L-AChR1.3 (UNC-63, UNC-38, ACR-8, UNC-29.3) (Haemonchus contortus, UniProt A9XX24+D6MYF1+D6MYF3+D6MYF4). Description: cell-based. More on the design: Emax: dose or concentration left out as unconfirmed. The procedure:
as §1, §2, §3

The target in experiment [3] is H. contortus L-AChR1.4 (UNC-63, UNC-38, ACR-8, UNC-29.4) (Haemonchus contortus, UniProt A9XX24+D6MYF2+D6MYF3+D6MYF4). Description: cell-based. The format is cell-based. Details: Emax: dose or concentration left out as unconfirmed. The procedure:
as §1, §2, §3

For experiment [4], the system named is H. contortus L-AChR1.2 (UNC-63, UNC-38, ACR-8, UNC-29.2). The format is cell-based, Haemonchus contortus. To be noted: for current in response to 100 μM perfusion: UNC-29.1 replaced by UNC-29.2, n = 18. The procedure:
as §1, §2
Two-electrode voltage-clamp experiments were carried out using a perfusion system connected to a flat RC-1Z chamber (Harvard Apparatus). Glass electrodes were filled with 3M KCl and checked for resistance between 1 and 3 MΩ. The oocyte bath was connected to the ground through a 3 M KCl agar bridge. […] Data were collected and analyzed using Clampex 9.2 and Clampfit 9.2 (Axon Instruments, Sunnyvale, CA, USA). Traces were filtered at 30 Hz and analyzed using GraphPad Prism 5.0 software (GraphPad Software, San Diego, CA, USA). […]

The target of experiment [5] is H. contortus L-AChR1.1 with added UNC-29.2 (Haemonchus contortus, UniProt A9XX24+D6MYE9+D6MYF3+D6MYF4). Description: Two-electrode voltage clamp of L-AChR1.1 supplemented with unc-29.2 cRNA in Xenopus oocytes. It is filed as cell-based. As to conditions: for effect of unc-29.2 cRNA on the pharmacological response: 0.2, 1, 5 times unc-29.2 cRNA relative to UNC-29.1.
Excerpt: Typically, such a situation can be identified by a change in the pharmacological properties of a receptor with addition of the second subunit. To address this, we examined the possibility that UNC-29.2 may interfere with or modify the properties of the reconstituted L-AChR1.1. We prepared oocytes injected with cRNAs to express the H. contortus L-AChR1.1 and supplemented this with an increasing (0.2, 1, 5 times) concentration of cRNA for UNC-29.2 relative to UNC-29.1.
as §1, §2, §3
(In two-electrode clamp one electrode senses voltage and the other passes current.)

In experiment [6] the test system is C. elegans L-AChR subunits (Cel-unc-63, Cel-unc-38, Cel-lev-8, Cel-lev-1) with Hco-unc-29 paralog. Description: Two-electrode voltage clamp of C. elegans / H. contortus AChR subunit admixtures in Xenopus oocytes. It is filed as cell-based.
Excerpt: To confirm that the LEV sensitivity rescue could be due to the functional incorporation of parasite protein into the C. elegans L-AChR, we injected into Xenopus oocytes, cRNA admixtures of the four essential C. elegans L-AChR subunits: Cel-unc-63, Cel-unc-38, Cel-lev-8 and Cel-lev-1, the three H. contortus accessory proteins: ric-3, unc-50 and unc-74, and the Cel-unc-29 or each Hco-unc-29 paralog in turn. Reconstitution of the C. elegans L-AChR with Cel-unc-29 produced functional channels as previously described, confirming that the H. contortus accessory proteins are functional between species. Omitting unc-29 produced no response, so any current produced using parasite genes must involve their incorporation into a functional L-AChR. […] UNC-29.1 produced an average of 500 μA currents, while the other three produced reproducible currents below 200 nA with UNC-29.2 producing the smallest response on average (S1 Fig).
as §1, with “Inc.). […]” for “Inc.).”
Two-electrode voltage-clamp experiments were carried out using a perfusion system connected to a flat RC-1Z chamber (Harvard Apparatus). […] Data were collected and analyzed using Clampex 9.2 and Clampfit 9.2 (Axon Instruments, Sunnyvale, CA, USA). Traces were filtered at 30 Hz and analyzed using GraphPad Prism 5.0 software (GraphPad Software, San Diego, CA, USA). […]

For another experiment, the system named is C. elegans. To be noted: 200 μM LEV. As for the experimental part:
The Cel-unc-29, unc-29.1, unc-29.2, unc-29.3, unc-29.4 cDNA sequences were amplified by PCR using primers containing restriction site inserted with restriction enzymes in the plasmid backbone (Addgene L2534) containing the myo-3 promoter. Strains used in these study were the wild-type Bristol isolate N2 and the LEV resistant isolate CB1072: unc-29 (e1072). Worms were grown on Escherichia coli OP50 seeded NGM (Nematode Growth Medium) plates at 20°C and maintained using standard culture methods. Hermaphrodite young adult C. elegans were transformed by microinjection of plasmids into the gonads. […] Successful transformation was determined by the observation of fluorescence of the selection marker in the two targeted neurones of the head region. Only worms carrying the selection marker were used for the behavioural and pharmacological analysis.
Three day old adult fluorescent worms were transferred onto unseeded NGM plates, equilibrated at 20°C, containing 200 μM LEV. Drug induced paralysis was determined by visual inspection every 15 min. Worms were defined as paralyzed if no movement was observed within five seconds after prodding the tail with a hair tip. Statistics. Experimental data are shown as mean ± S.D. Statistical comparisons between the unc-29 (e1072) mutant strain and the transformed lines were done using two-way ANOVA with Bonferroni’s multiple comparison post test. A level of p < 0.05 was considered significant.

Regarding `CC(=O)OCC[N+](C)(C)C` [ACh, Acetylcholine chloride], the “Max ACh Current” value in experiment [1] (L-AChR1.1 (Hco-UNC-29.1)) is about 1.5 μA; in experiment [2] (L-AChR1.3 (Hco-UNC-29.3)), about 1.5 μA; in experiment [3] (L-AChR1.4 (Hco-UNC-29.4)), about 500 nA; in experiment [4] (receptor with Hco-UNC-29.2) it was 0 μA. The Hill is 0.88 ± 0.05 in experiment [1] (L-AChR1.1, Hill coefficient of concentration-response curve); 0.89 ± 0.05 in experiment [2] (L-AChR1.3, Hill coefficient of concentration-response curve); 1.12 ± 0.04 in experiment [3] (L-AChR1.4, Hill coefficient of concentration-response curve); 0.91 ± 0.08 in experiment [5] (29.1 : 29.2 cRNA 1 : 0.2); 0.96 ± 0.13 in experiment [5] (29.1 : 29.2 cRNA 1 : 1); 1.09 ± 0.10 in experiment [5] (29.1 : 29.2 cRNA 1 : 5). Moreover, the Emax at 100 µM in experiment [1] (L-AChR1.1, agonists at 100 μM, normalized to 100 μM acetylcholine, read-out: Max. Current ± S.E.) is 100%; in experiment [2] (L-AChR1.3, agonists at 100 μM, normalized to 100 μM acetylcholine, read-out: Max. Current ± S.E.) it was 100%; in experiment [3] (L-AChR1.4, agonists at 100 μM, normalized to 100 μM acetylcholine, read-out: Max. Current ± S.E.), 100%. Further, the “current in response to 100 μM perfusion” value in experiment [4] was “failed to produce any detectable current”. Moreover, in experiment [5], the “effect of unc-29.2 cRNA on the pharmacological response” value is “no effect”. Further, the “average current on perfusion of 100 μM ACh” value in experiment [6] (admixture with UNC-29.1) is recorded as 500 μA. Further, in experiment [6] (admixtures with the other three paralogs (UNC-29.2, UNC-29.3, UNC-29.4)), the “current on perfusion of 100 μM ACh” value is “below 200 nA”.

`c1ccc([C@H]2CN3CCSC3=N2)cc1` [LEV, (-)-tetramisole hydrochloride]: the Hill in experiment [1] was 0.84 ± 0.05; in experiment [2], 1.13 ± 0.09; in experiment [3], 0.90 ± 0.12; in experiment [5] (29.1 : 29.2 cRNA 1 : 0.2), 0.69 ± 0.09; in experiment [5] (29.1 : 29.2 cRNA 1 : 1) it was 0.71 ± 0.13; in experiment [5] (29.1 : 29.2 cRNA 1 : 5) it was 0.77 ± 0.13. For the same molecule, the “Relative response (LEV versus ACh)” value is reported as “superagonist; also recorded: LEV > ACh” in experiment [1], “partial agonist; also recorded: LEV < ACh” in experiment [2] and “LEV = ACh” in experiment [3]. In addition, the half-maximal effective concentration (EC50) is 4.9 µM and 4.91 µM in experiment [1] (EC50); 1.15 ± 0.08 µM in experiment [2]; 2.48 ± 0.35 µM in experiment [3]; 3.05 ± 0.44 µM in experiment [5] (29.1 : 29.2 cRNA 1 : 0.2); 2.41 ± 0.08 µM in experiment [5] (29.1 : 29.2 cRNA 1 : 1); 3.7 ± 0.35 µM in experiment [5] (29.1 : 29.2 cRNA 1 : 5). In addition, the Emax at 100 µM was 125% in experiment [1] (read-out: LEV current, % of ACh response) and 65.2 ± 9.9% in experiment [2] (read-out: LEV current, % of the ACh current). Further, the Emax in experiment [1] (read-out: Max. Current ± S.E.) came out at 125 ± 3.76%; in experiment [2] (read-out: Max. Current ± S.E.) it was 65.2 ± 3.5%; in experiment [3] (read-out: Max. Current ± S.E.), 94.7 ± 2.93%. In experiment [4], the “current in response to 100 μM perfusion” value was “failed to produce any detectable current”. The “effect of unc-29.2 cRNA on the pharmacological response” value in experiment [5] is “no effect”. Moreover, in experiment [6] (each Hco-unc-29 paralog), the “current on perfusion of 100 μM LEV relative to the ACh response” value is “comparable between subunit copies”. Moreover, the “paralysis on exposure to LEV” value was “barely affected” with C. elegans (mutant unc-29(e1072) (CB1072), two hours); “complete rescue of LEV sensitivity” with C. elegans (unc-29(e1072) transfected with Cel-unc-29); “paralyzed after two hours” in the experiment with C. elegans (unc-29(e1072) transfected with each of the four H. contortus unc-29 copies); “rapid paralysis that was complete after an hour” with C. elegans (wild-type N2 worms).

In general, EC50 refers to the concentration that produces a half-maximal response.
